Laboratory results taken from patent US20260015350A1, “AZAQUINAZOLINE PAN-KRAS INHIBITORS” (Mirati Therapeutics, Inc., priority 2022, published 2026).

Tests used:
[1] = tested on: KRas-mediated phosphorylation of ERK in H727 cells; experiment: Inhibition of KRas-mediated phosphorylation of ERK (Cisbio HTRF pERK), H727 cells; assay type: cell-based; details: Homo sapiens, NCI-H727, H727 cells; HTRF pERK
How it was run: (§1)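 Min control wells contained 0.2 uM Trametinib, while test compounds ran as 10 doses (3-fold, top 10 uM; 0.8% DMSO final) on cells for 3 hrs. After 40 mins lysis at 4° C, lysates were probed with HTRF antibodies for 2 hrs at room temperature.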

KRas^G12R = target: T1, KRas^G12R (Homo sapiens, UniProt P01116, G12R); experiment: KRas binding assay (TR-FRET tracer displacement), KRas G12R
T1 construct: Biotinylated KRas (corresponding to amino acids 1-169, produced at Accelegan Inc.); biotin (biotinylated); purchased Accelegan Inc
T1 sequence (P01116 1-169 isoform P01116-2 G12R): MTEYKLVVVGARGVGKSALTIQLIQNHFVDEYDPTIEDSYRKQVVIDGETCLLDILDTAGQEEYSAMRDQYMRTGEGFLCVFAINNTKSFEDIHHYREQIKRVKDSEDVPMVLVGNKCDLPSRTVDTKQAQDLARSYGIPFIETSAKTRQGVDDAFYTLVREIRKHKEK

KRas^G12V = target: T2, KRas^G12V (Homo sapiens, UniProt P01116, G12V); experiment: KRas binding assay (TR-FRET tracer displacement), KRas G12V
T2 construct: Biotinylated KRas (corresponding to amino acids 1-169, produced at Accelegan Inc.); biotin (biotinylated); purchased Accelegan Inc
T2 sequence (P01116 1-169 isoform P01116-2 G12V): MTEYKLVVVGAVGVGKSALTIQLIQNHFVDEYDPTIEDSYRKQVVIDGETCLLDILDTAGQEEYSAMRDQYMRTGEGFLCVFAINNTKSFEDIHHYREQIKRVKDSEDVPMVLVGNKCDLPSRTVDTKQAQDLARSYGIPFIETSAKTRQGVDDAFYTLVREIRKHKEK

[2] = tested on: KRas-mediated phosphorylation of ERK in AsPC-1 cells; experiment: Inhibition of KRas-mediated phosphorylation of ERK (Cisbio HTRF pERK), AsPC-1 cells; assay type: cell-based; details: Homo sapiens, ASPC1, AsPC-1 cells; HTRF pERK
How it was run: as §1

KRas^G12D = target: T3, KRas^G12D (Homo sapiens, UniProt P01116, G12D); experiment: KRas binding assay (TR-FRET tracer displacement), KRas G12D
T3 construct: Biotinylated KRas (corresponding to amino acids 1-169, produced at Accelegan Inc.); biotin (biotinylated); purchased Accelegan Inc
T3 sequence (P01116 1-169 isoform P01116-2 G12D): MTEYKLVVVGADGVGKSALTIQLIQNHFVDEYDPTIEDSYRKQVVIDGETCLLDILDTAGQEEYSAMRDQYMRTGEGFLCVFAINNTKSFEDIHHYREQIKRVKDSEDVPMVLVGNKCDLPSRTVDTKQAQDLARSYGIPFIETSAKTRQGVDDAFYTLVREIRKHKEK

Row | Structure (SMILES) | IC50 [1] [nM] | IC50 (KRas^G12R) [nM] | IC50 (KRas^G12V) [nM] | IC50 [2] [nM] | IC50 (KRas^G12D) [nM]
1 | CCc1c(F)ccc2cc(O)cc(-c3ncc4c(N5CC6(CO)CC(C7CC7)(C5)C6)nc(OC[C@@]56CCCN5C[C@H](F)C6)nc4c3F)c12 [Example 613, 4-(4-(1-cyclopropyl-5-(hydroxymethyl)-3-azabicyclo[3.1.1]heptan-3-yl)-8-fluoro-2-(((2R,7aS)-2-fluorohexahydro-1H-pyrrolizin-7a-yl)methoxy)pyrido[4,3-d]pyrimidin-7-yl)-5-ethyl-6-fluoronaphthalen-2-ol] | > 10000 | 27500 | 21800 | > 10000 | 54800
2 | CCc1c(F)ccc2cc(O)cc(-c3ncc4c(N5CCCC(C6CCC(=O)N6)C5)nc(OC[C@@]56CCCN5C[C@H](F)C6)nc4c3F)c12 (stereo partly drawn) [Example 620, 5-(1-(7-(8-ethyl-7-fluoro-3-hydroxynaphthalen-1-yl)-8-fluoro-2-(((2R,7aS)-2-fluorohexahydro-1H-pyrrolizin-7a-yl)methoxy)pyrido[4,3-d]pyrimidin-4-yl)piperidin-3-yl)pyrrolidin-2-one] | 6800 | 376 | 248 | 9680 | 495
3 | CCc1c(F)ccc2cc(O)cc(-c3ncc4c(N5CC6CN(C7COC7)CC6C5)nc(OC[C@@]56CCCN5C[C@H](F)C6)nc4c3F)c12 (stereo partly drawn) [Example 621, 5-ethyl-6-fluoro-4-(8-fluoro-2-(((2R,7aS)-2-fluorohexahydro-1H-pyrrolizin-7a-yl)methoxy)-4-(5-(oxetan-3-yl)hexahydropyrrolo[3,4-c]pyrrol-2(1H)-yl)pyrido[4,3-d]pyrimidin-7-yl)naphthalen-2-ol] | > 10000 | 3490 | 1290 | > 10000 | 891
4 | CCc1c(F)ccc2cc(O)cc(-c3ncc4c(N5C[C@@H]6[C@@H](C(N)=O)NC(=O)[C@@H]6C5)nc(OC[C@@]56CCCN5C[C@H](F)C6)nc4c3F)c12 [Example 622, (3aS,6aR)-5-(7-(8-ethyl-7-fluoro-3-hydroxynaphthalen-1-yl)-8-fluoro-2-(((2R,7aS)-2-fluorotetrahydro-1H-pyrrolizin-7a(5H)-yl)methoxy)pyrido[4,3-d]pyrimidin-4-yl)-3-oxooctahydropyrrolo[3,4-c]pyrrole-1-carboxamide] | > 10000 | 139 | 68 | > 10000 | 377
5 | CCc1c(F)ccc2cc(O)cc(-c3ncc4c(N[C@@H]5C[C@@H](C)S(=O)(=O)[C@@H](C)C5)nc(OC[C@@]56CCCN5C[C@H](F)C6)nc4c3F)c12 [Example 630, (2R,4s,6S)-4-((7-(8-ethyl-7-fluoro-3-hydroxynaphthalen-1-yl)-8-fluoro-2-(((2R,7aS)-2-fluorohexahydro-1H-pyrrolizin-7a-yl)methoxy)pyrido[4,3-d]pyrimidin-4-yl)amino)-2,6-dimethyltetrahydro-2H-thiopyran 1,1-dioxide] | 4420 | 34 | 93 | > 10000 | 796
6 | CCc1c(F)ccc2cc(O)cc(-c3ncc4c(NS(=O)(=O)C5CCCNCC5)nc(OC[C@@]56CCCN5C[C@H](F)C6)nc4c3F)c12 (stereo partly drawn) [Example 632, N-(7-(8-ethyl-7-fluoro-3-hydroxynaphthalen-1-yl)-8-fluoro-2-(((2R,7aS)-2-fluorotetrahydro-1H-pyrrolizin-7a(5H)-yl)methoxy)pyrido[4,3-d]pyrimidin-4-yl)azepane-4-sulfonamide] | > 10000 | 1870 | 1200 | > 10000 | 2180
7 | CCc1c(F)ccc2cc(O)cc(-c3ncc4c(N5Cc6n[nH]c(C(=O)N(C)C)c6C5)nc(OC[C@@]56CCCN5C[C@H](F)C6)nc4c3F)c12 [Example 635, 5-(7-(8-ethyl-7-fluoro-3-hydroxynaphthalen-1-yl)-8-fluoro-2-(((2R,7aS)-2-fluorotetrahydro-1H-pyrrolizin-7a(5H)-yl)methoxy)pyrido[4,3-d]pyrimidin-4-yl)-N,N-dimethyl-2,4,5,6-tetrahydropyrrolo[3,4-c]pyrazole-3-carboxamide] | > 10000 | 766 | 454 | > 10000 | 1640
8 | CCc1c(F)ccc2cc(O)cc(-c3ncc4c(N5CCCC(N6C(=O)CCC6=O)C5)nc(OC[C@@]56CCCN5C[C@H](F)C6)nc4c3F)c12 (stereo partly drawn) [Example 638, 1-(1-(7-(8-ethyl-7-fluoro-3-hydroxynaphthalen-1-yl)-8-fluoro-2-(((2R,7aS)-2-fluorotetrahydro-1H-pyrrolizin-7a(5H)-yl)methoxy)pyrido[4,3-d]pyrimidin-4-yl)piperidin-3-yl)pyrrolidine-2,5-dione] | 1270 | 16 | 34 | 930 | 41

Now from value to compound:

Row | IC50 [1] [nM] | IC50 (KRas^G12R) [nM] | IC50 (KRas^G12V) [nM] | IC50 [2] [nM] | IC50 (KRas^G12D) [nM] | Structure (SMILES)
9 | > 10000 | 911 | 474 | > 10000 | 4250 | CCc1c(F)ccc2cc(O)cc(-c3ncc4c(N5CCC6(CC5)OCCC6C#N)nc(OC[C@@]56CCCN5C[C@H](F)C6)nc4c3F)c12 (stereo partly drawn) [Example 612, 8-(7-(8-ethyl-7-fluoro-3-hydroxynaphthalen-1-yl)-8-fluoro-2-(((2R,7aS)-2-fluorohexahydro-1H-pyrrolizin-7a-yl)methoxy)pyrido[4,3-d]pyrimidin-4-yl)-1-oxa-8-azaspiro[4.5]decane-4-carbonitrile]
10 | > 10000 | 701 | 398 | > 10000 | 805 | CCc1c(F)ccc2cc(O)cc(-c3ncc4c(N5CC[C@@H]6C(=O)NC(=O)[C@@H]6CC5)nc(OC[C@@]56CCCN5C[C@H](F)C6)nc4c3F)c12 [Example 614, (3aR,8aS)-6-(7-(8-ethyl-7-fluoro-3-hydroxynaphthalen-1-yl)-8-fluoro-2-(((2R,7aS)-2-fluorohexahydro-1H-pyrrolizin-7a-yl)methoxy)pyrido[4,3-d]pyrimidin-4-yl)hexahydropyrrolo[3,4-d]azepine-1,3(2H,3aH)-dione]
11 | > 10000 | 23600 | 43000 | > 10000 | 98800 | CCc1c(F)ccc2cc(O)cc(-c3ncc4c(N5CCC(C)(C)SC(C)(C)C5)nc(OC[C@@]56CCCN5C[C@H](F)C6)nc4c3F)c12 [Example 626, 5-ethyl-6-fluoro-4-(8-fluoro-2-(((2R,7aS)-2-fluorohexahydro-1H-pyrrolizin-7a-yl)methoxy)-4-(2,2,7,7-tetramethyl-1,4-thiazepan-4-yl)pyrido[4,3-d]pyrimidin-7-yl)naphthalen-2-ol]
12 | 4560 | 27 | 12 | > 10000 | 35 | CCc1c(F)ccc2cc(O)cc(-c3ncc4c(N5CCCCC(P(C)(C)=O)C5)nc(OC[C@@]56CCCN5C[C@H](F)C6)nc4c3F)c12 (stereo partly drawn) [Example 627, (1-(7-(8-ethyl-7-fluoro-3-hydroxynaphthalen-1-yl)-8-fluoro-2-(((2R,7aS)-2-fluorohexahydro-1H-pyrrolizin-7a-yl)methoxy)pyrido[4,3-d]pyrimidin-4-yl)azepan-3-yl)dimethylphosphine oxide]
13 | 2810 | 180 | 107 | 3260 | 78 | CCc1c(F)ccc2cc(O)cc(-c3ncc4c(N5CCCC6(CCS6(=O)=O)C5)nc(OC[C@@]56CCCN5C[C@H](F)C6)nc4c3F)c12 (stereo partly drawn) [Example 628, 6-(7-(8-ethyl-7-fluoro-3-hydroxynaphthalen-1-yl)-8-fluoro-2-(((2R,7aS)-2-fluorohexahydro-1H-pyrrolizin-7a-yl)methoxy)pyrido[4,3-d]pyrimidin-4-yl)-1-thia-6-azaspiro[3.5]nonane 1,1-dioxide]
14 | > 10000 | 37 | 15 | > 10000 | 65 | CCc1c(F)ccc2cc(O)cc(-c3ncc4c(N5CCOCC(P(C)(C)=O)C5)nc(OC[C@@]56CCCN5C[C@H](F)C6)nc4c3F)c12 (stereo partly drawn) [Example 629, (4-(7-(8-ethyl-7-fluoro-3-hydroxynaphthalen-1-yl)-8-fluoro-2-(((2R,7aS)-2-fluorohexahydro-1H-pyrrolizin-7a-yl)methoxy)pyrido[4,3-d]pyrimidin-4-yl)-1,4-oxazepan-6-yl)dimethylphosphine oxide]
15 | 1600 | 33 | 12 | 3130 | 9 | CCc1c(F)ccc2cc(O)cc(-c3ncc4c(N5CCCC(S(N)(=O)=O)CC5)nc(OC[C@@]56CCCN5C[C@H](F)C6)nc4c3F)c12 (stereo partly drawn) [Example 631, 1-(7-(8-ethyl-7-fluoro-3-hydroxynaphthalen-1-yl)-8-fluoro-2-(((2R,7aS)-2-fluorotetrahydro-1H-pyrrolizin-7a(5H)-yl)methoxy)pyrido[4,3-d]pyrimidin-4-yl)azepane-4-sulfonamide]
16 | 1810 | < 2 | 3 | 4190 | 10 | CCc1c(F)ccc2cc(O)cc(-c3ncc4c(N5CCO[C@@H](CS(N)(=O)=O)C5)nc(OC[C@@]56CCCN5C[C@H](F)C6)nc4c3F)c12 [Example 636, 1-((R)-4-(7-(8-ethyl-7-fluoro-3-hydroxynaphthalen-1-yl)-8-fluoro-2-(((2R,7aS)-2-fluorotetrahydro-1H-pyrrolizin-7a(5H)-yl)methoxy)pyrido[4,3-d]pyrimidin-4-yl)morpholin-2-yl)methanesulfonamide]
